Measurements published in US9708314B2, “Heterocyclic amide compound” (NISSAN CHEMICAL INDUSTRIES, LTD., priority 2013, dated 2017).

How the values were obtained:
Assay type in all cases: in vivo
Setaria viridis = experiment: Test Example 4: herbicidal effect by application to foliage (diluvial soil, plastic box); conditions: application to foliage, application herbicide amount 320 g/ha
Method in brief: (§1)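 Scores run from 0 (herbicidal ratio ≤5%) to 5 (≥90%, almost fully withered) and were assessed three weeks after foliar spraying. Seedlings had been raised for 14 days at 25-30° C in sterilized diluvial soil before treatment, with the emulsion diluted in water to the stated g/ha dose.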

Veronica persica = experiment: as above; conditions: application to foliage, application herbicide amount 320 g/ha
Method in brief: as §1

Alopecurus myosuroides = experiment: as above; conditions: application to foliage, application herbicide amount 320 g/ha
Method in brief: as §1

[1] = tested on: Echinochloa crus-galli var. crus-galli; experiment: as above; conditions: application to foliage, application herbicide amount 320 g/ha
Method in brief: as §1

Abutilon theophrasti = experiment: as above; conditions: application to foliage, application herbicide amount 320 g/ha
Method in brief: as §1

Lolium multiflorum Lam. = experiment: as above; conditions: application to foliage, application herbicide amount 320 g/ha
Method in brief: as §1

Digitaria ciliaris = experiment: as above; conditions: application to foliage, application herbicide amount 320 g/ha
Method in brief: as §1

Chenopodium album = experiment: as above; conditions: application to foliage, application herbicide amount 320 g/ha
Method in brief: as §1

Galium spurium = experiment: as above; conditions: application to foliage, application herbicide amount 320 g/ha
Method in brief: as §1

Avena fatua = experiment: as above; conditions: application to foliage, application herbicide amount 320 g/ha
Method in brief: as §1

Apera spica-venti. = experiment: as above; conditions: application to foliage, application herbicide amount 320 g/ha
Method in brief: as §1

Scirpus juncoides = experiment: Test Example 2: herbicidal activity, application during weed generation in submerged conditions; conditions: Eighteenth Table; application herbicide amount 320 g/ha
Method in brief: (§2)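 Alluvial soil in Wagner pots flooded to 4 cm water depth; seeds sown mixed, grown in greenhouse at 25–30 °C. At one- to two-leaf stage, emulsion diluted with water to the set rate (g/ha) was applied to the water surface. Effect scored 0–5 by herbicidal ratio three weeks later.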

Monochoria vaginalis = experiment: as above; conditions: Eighteenth Table; application herbicide amount 320 g/ha
Method in brief: as §2

[2] = tested on: Echinochloa oryzacola Vasing.; experiment: as above; conditions: Eighteenth Table; application herbicide amount 320 g/ha
Method in brief: as §2

[3] = tested on: directly sowed Oryza sativa; experiment: Test Example 4: effect on crop by application to foliage (diluvial soil, plastic box); conditions: application to foliage, application herbicide amount 320 g/ha
Method in brief: as §1

Glycine max = experiment: as above; conditions: application to foliage, application herbicide amount 320 g/ha
Method in brief: as §1

Triticum aestivum = experiment: as above; conditions: application to foliage, application herbicide amount 320 g/ha
Method in brief: as §1

Brassica campestris L. = experiment: as above; conditions: application to foliage, application herbicide amount 320 g/ha
Method in brief: as §1

Zea mays = experiment: as above; conditions: application to foliage, application herbicide amount 320 g/ha
Method in brief: as §1

[4] = tested on: Beta vulgaris ssp. vulgaris; experiment: as above; conditions: application to foliage, application herbicide amount 320 g/ha
Method in brief: as §1

SMILES | G (Setaria viridis) herbicidal effect (Setaria viridis) | R (Veronica persica) herbicidal effect (Veronica persica) | J (Alopecurus myosuroides) herbicidal effect (Alopecurus myosuroides) | H (Echinochloa crus-galli var. crus-galli) herbicidal effect [1] | M (Abutilon theophrasti) herbicidal effect (Abutilon theophrasti) | K (Lolium multiflorum Lam.) herbicidal effect (Lolium multiflorum Lam.) | F (Digitaria ciliaris) herbicidal effect (Digitaria ciliaris) | O (Chenopodium album) herbicidal effect (Chenopodium album) | Q (Galium spurium) herbicidal effect (Galium spurium) | I (Avena fatua) herbicidal effect (Avena fatua) | L (Apera spica-venti.) herbicidal effect (Apera spica-venti.) | B (Scirpus juncoides) herbicidal ratio grade (Scirpus juncoides) | C (Monochoria vaginalis) herbicidal ratio grade (Monochoria vaginalis) | A (Echinochloa oryzicola Vasing.) herbicidal ratio grade [2] | d (directly sowed Oryza sativa) effect on crop [3] | c (Glycine max) effect on crop (Glycine max) | e (Triticum aestivum) effect on crop (Triticum aestivum) | g (Brassica campestris L.) effect on crop (Brassica campestris L.) | b (Zea mays) effect on crop (Zea mays) | f (Beta vulgaris ssp. vulgaris) effect on crop [4]
Cc1nnc(NC(=O)c2ccc(C(F)(F)F)n3c(SC(C)C)nnc23)o1 [1-033] | 5 (Herbicidal ratio of 90% or more (almost completely withered)) | 5 (Herbicidal ratio of 90% or more (almost completely withered)) | 1 (Herbicidal ratio of 5% or more and less than 20%) | 5 (Herbicidal ratio of 90% or more (almost completely withered)) | 5 (Herbicidal ratio of 90% or more (almost completely withered)) | 1 (Herbicidal ratio of 5% or more and less than 20%) | 5 (Herbicidal ratio of 90% or more (almost completely withered)) | 5 (Herbicidal ratio of 90% or more (almost completely withered)) | 3 (Herbicidal ratio of 40% or more and less than 70%) | 2 (Herbicidal ratio of 20% or more and less than 40%) | 2 (Herbicidal ratio of 20% or more and less than 40%) | 4 (Herbicidal ratio of 70% or more and less than 90%) | 3 (Herbicidal ratio of 40% or more and less than 70%) | 4 (Herbicidal ratio of 70% or more and less than 90%) | 3 (Herbicidal ratio of 40% or more and less than 70%) | 2 (Herbicidal ratio of 20% or more and less than 40%) | 1 (Herbicidal ratio of 5% or more and less than 20%) | 4 (Herbicidal ratio of 70% or more and less than 90%) | 0 (Herbicidal ratio of 5% or less (almost no effect)) | 5 (Herbicidal ratio of 90% or more (almost completely withered))
Cc1nnc(NC(=O)c2ccc(C(F)(F)F)n3cnnc23)o1 [1-001] | 3 (Herbicidal ratio of 40% or more and less than 70%) | 4 (Herbicidal ratio of 70% or more and less than 90%) | 1 (Herbicidal ratio of 5% or more and less than 20%) | 4 (Herbicidal ratio of 70% or more and less than 90%) | 3 (Herbicidal ratio of 40% or more and less than 70%) | 1 (Herbicidal ratio of 5% or more and less than 20%) | 4 (Herbicidal ratio of 70% or more and less than 90%) | 5 (Herbicidal ratio of 90% or more (almost completely withered)) | 4 (Herbicidal ratio of 70% or more and less than 90%) | 1 (Herbicidal ratio of 5% or more and less than 20%) | 1 (Herbicidal ratio of 5% or more and less than 20%) | 4 (Herbicidal ratio of 70% or more and less than 90%) | 2 (Herbicidal ratio of 20% or more and less than 40%) | 4 (Herbicidal ratio of 70% or more and less than 90%) | 3 (Herbicidal ratio of 40% or more and less than 70%) | 0 (Herbicidal ratio of 5% or less (almost no effect)) | 1 (Herbicidal ratio of 5% or more and less than 20%) | 4 (Herbicidal ratio of 70% or more and less than 90%) | 0 (Herbicidal ratio of 5% or less (almost no effect)) | 4 (Herbicidal ratio of 70% or more and less than 90%)
CCOC(=O)Cc1nnc2c(C(=O)Nc3nnc(C)o3)ccc(C(F)(F)F)n12 [1-042] | 3 (Herbicidal ratio of 40% or more and less than 70%) | 4 (Herbicidal ratio of 70% or more and less than 90%) | 0 (Herbicidal ratio of 5% or less (almost no effect)) | 5 (Herbicidal ratio of 90% or more (almost completely withered)) | 4 (Herbicidal ratio of 70% or more and less than 90%) | 0 (Herbicidal ratio of 5% or less (almost no effect)) | 4 (Herbicidal ratio of 70% or more and less than 90%) | 5 (Herbicidal ratio of 90% or more (almost completely withered)) | 3 (Herbicidal ratio of 40% or more and less than 70%) | 2 (Herbicidal ratio of 20% or more and less than 40%) | 2 (Herbicidal ratio of 20% or more and less than 40%) | 2 (Herbicidal ratio of 20% or more and less than 40%) | 3 (Herbicidal ratio of 40% or more and less than 70%) | 1 (Herbicidal ratio of 5% or more and less than 20%) | 3 (Herbicidal ratio of 40% or more and less than 70%) | 1 (Herbicidal ratio of 5% or more and less than 20%) | 0 (Herbicidal ratio of 5% or less (almost no effect)) | 3 (Herbicidal ratio of 40% or more and less than 70%) | 0 (Herbicidal ratio of 5% or less (almost no effect)) | 5 (Herbicidal ratio of 90% or more (almost completely withered))
CCSc1nnc2c(C(=O)Nc3nnc(C)o3)ccc(C(F)(F)F)n12 [1-032] | 5 (Herbicidal ratio of 90% or more (almost completely withered)) | 4 (Herbicidal ratio of 70% or more and less than 90%) | 1 (Herbicidal ratio of 5% or more and less than 20%) | 5 (Herbicidal ratio of 90% or more (almost completely withered)) | 5 (Herbicidal ratio of 90% or more (almost completely withered)) | 1 (Herbicidal ratio of 5% or more and less than 20%) | 5 (Herbicidal ratio of 90% or more (almost completely withered)) | 5 (Herbicidal ratio of 90% or more (almost completely withered)) | 2 (Herbicidal ratio of 20% or more and less than 40%) | 2 (Herbicidal ratio of 20% or more and less than 40%) | 2 (Herbicidal ratio of 20% or more and less than 40%) | 3 (Herbicidal ratio of 40% or more and less than 70%) | 3 (Herbicidal ratio of 40% or more and less than 70%) | 4 (Herbicidal ratio of 70% or more and less than 90%) | 4 (Herbicidal ratio of 70% or more and less than 90%) | 0 (Herbicidal ratio of 5% or less (almost no effect)) | 1 (Herbicidal ratio of 5% or more and less than 20%) | 4 (Herbicidal ratio of 70% or more and less than 90%) | 0 (Herbicidal ratio of 5% or less (almost no effect)) | 5 (Herbicidal ratio of 90% or more (almost completely withered))
